This note sets out measurements from patent US9687438B2, “Method for enhancing collagen secretion and preventing cutaneous aging using chenopodium formosanum extract” (TCI Co., Ltd., priority 2014, dated 2017).

Assay [1] deals with porcine collagen. The experiment in a line: Intermediate glycation product (α-dicarbonyl compounds) formation. The class given is biochemical. The following applies: versus untreated glycated collagen control. How it is done:
(§1) In order to evaluate the ability to prevent glycation of collagen of the Chenopodium formosanum extract, firstly, porcine collagen (60 mg/mL) and fructose (1.5 M) were respectively prepared in 0.2 M potassium phosphate buffer (pH 7.4, containing 0.06% sodium azide). For each reaction of glycation, 100 μL of porcine collagen, 100 μL of fructose solution, and 100 μL of deionized water were deposited in a 1.5 mL microfuge tube. After incubation, the reacted solutions were stored frozen at −20° C. For determination of collagen-fructose glycation, a glycation inhibitor of aminoguanidine (AG) (Sigma) was used. 100 μL of 3 mM AG solution (prepared in deionized water) was introduced in substitution of the deionized water in each of the reactions described above containing collagen and fructose. Meanwhile, different concentrations of the whole grain (un-dehulled) Chenopodium formosanum extract were also prepared and introduced to the reactions describe above. For determination of the intensity, 100 μL of each reacted solution was withdrawn to a well of a 96-well plate and subjected to intensity determination by a spectrofluorometer (FLx 800, BioTek, Winooski, Vt.) set at 360 nm of excitation and 460 nm of emission.
Along the glycation process, amadori product is transformed into intermediate-product such as α-dicarbonyl compounds. […]

For assay [2], the system named is porcine collagen. Description: Early glycation product (fructosamine) formation. The assay is classed as biochemical. To be noted: versus untreated glycated collagen control. How it is done:
as §1
Amadori product such as fructosamine is formed at the early stage of glycation. […]

SMILES strings stand for the structures.

For the compound `N=C(N)NN` [aminoguanidine], in the assay with porcine collagen [1], the “reduction of relative α-dicarbonyl compounds formation” value was “practically incapable of suppressing the formation of α-dicarbonyl compounds”. The “reduction of relative fructosamine formation” value in the assay with porcine collagen [2] is “about 8%”.
